Results as given in patent US8080517B2, “Cell-permeable peptide inhibitors of the JNK signal transduction pathway” (Xigen SA, priority 2005, dated 2011).
“Also recorded” adds a separate entry of the source. Where a SMILES comes first, the peptide text is derived from it. [ ]: non-standard residue; d: D form.

Columns and labels:
βTC-3 cell cultures = format: cell-based
Description: The ability of the L- and D-enantiomeric forms of TAT and inventive TAT-IB1(s) peptides (“TAT-IB peptides”) to enter cells was evaluated. L-TAT, D-TAT, inventive L-TAT-IB1(s), and inventive D-TAT-IB1(s) peptides [SEQ ID NOs: 5, 6, 9 and 12, respectively] were labeled by N-terminal addition of a glycine residue conjugated to fluorescein. Labeled peptides (1 μM) were added to βTC-3 cell cultures, which were maintained as described in Example 3. At predetermined times cells were washed with PBS and fixed for five minutes in ice-cold methanol-acetone (1:1) before being examined under a fluorescence microscope. Fluorescein-labeled BSA (1 μM, 12 moles/mole BSA) was used as a control.
Little to no signal was present at 48 hours.
Fluorescent signals from these all-D retro-inverso peptides were still very strong 1 week later, and the signal was only slightly diminished at 2 weeks post treatment.

[1] = test system: recombinant JNK1, JNK2, or JNK3 kinases; assay: Solid phase kinase assay, phosphorylation of c-Jun, ATF2 and Elk1 by recombinant JNKs; format: biochemical; details: GST-Jun (aa 1-73), 0-250 μM dosage study
Description: The effects of the peptides on JNKs-mediated phosphorylation of their target transcription factors were investigated in vitro. Recombinant and non activated JNK1, JNK2 and JNK3 were produced using a TRANSCRIPTION AND TRANSLATION rabbit reticulocyte lysate kit (Promega) and used in solid phase kinase assays with c-Jun, ATF2 and Elk1, either alone or fused to glutathione-S-transferase (GST), as substrates. Dose response studies were performed wherein inventive L-TAT or L-TAT-IB1(s) peptides (0-25 μM) were mixed with the recombinant JNK1, JNK2, or JNK3 kinases in reaction buffer (20 mM Tris-acetate, 1 mM EGTA, 10 mM p-nitrophenyl-phosphate (pNPP), 5 mM sodium pyrophosphate, 10 mM p-glycerophosphate, 1 mM dithiothreitol) for 20 minutes. The kinase reactions were then initiated by the addition of 10 mM MgCl2 and 5 pCi […] and 1 μg of either GST-Jun (aa 1-89), GST-AFT2 (aa 1-96) or GST-ELK1 (aa 307-428). GST-fusion proteins were purchased from Stratagene (La Jolla, Calif.).
Ten μL of glutathione-agarose beads were also added to the mixture. Reaction products were then separated by SDS-PAGE on a denaturing 10% polyacrylamide gel. Gels were dried and subsequently exposed to X-ray films (Kodak). […] The ability of D-TAT, inventive D-TAT-IB1(s) and inventive L-TAT-IB1(s) peptides (0-250 μM dosage study) to inhibit GST-Jun (aa 1-73) phosphorylation by recombinant JNK1, JNK2, and JNKS by were analyzed as described above. Overall, D-TAT-IB1(s) peptide decreased JNK-mediated phosphorylation of c-Jun, but at levels approximately 10-20 fold less efficiently than L-TAT-IB1(s).

WiDr cells = assay: Irradiation (30 Gy) induced apoptosis; format: cell-based, human; details: 1 μM added 30 minutes before 30 Gy, analyzed 48 hours later
Description: JNK is also activated by ionizing radiation. To determine whether inventive TAT-IB(s) peptides would provide protection against radiation-induced JNK damage, “WiDr” cells were irradiated (30 Gy) in presence or absence of D-TAT, inventive L-TAT-IB1(s) or inventive D-TAT-IB1(s) peptides (1 μM added 30 minutes before irradiation). Control cells (CTRL) were not irradiated. Cells were analyzed 48 hours later by means of PI and Hoechst 3342 staining, as described above. N=3, SEM are indicated.

[2] = Focal cerebral ischaemia, transient MCAO model, infarct volume; format: in vivo, male ICR-CD1 mice; details: i.v. administration, FIG. 4
From the text: Evaluation of neuroprotection by inventive chimeric peptides after iv administration against focal cerebral ischaemia, in a transient MCAO model (see FIG. 4).
Transient ischemia in adult mice. Using male ICR-CD1 mice (6 weeks old; 18-37 g; Harlan), we provoked ischemia by introducing a filament from the common carotid artery into the internal carotid and advancing it into the arterial circle, thereby occluding the middle cerebral artery. We measured regional cerebral blood flow by laser Doppler flowmetry, with a probe fixed on the skull throughout the ischemia until 10 min after reperfusion. Rectal temperature was measured and maintained at 37° C. The mice were killed 48 h after reperfusion. Serial cryostat sections 20 μm thick were traced using a computer-microscope system equipped with the Neurolucida program (MicroBrightField) and the volumes of the ischemic area and of the whole brain were calculated (blinded) with the Neuroexplorer program. XG−102 0.3=0.3 mg/kg,XG−102 1=1 mg/kg, XG−102 5=5 mg/kg
The infarct volume sizes (mm^3) after bolus iv administration of placebo and XG-102 0.3, […] 6 hours after reperfusion (30 minutes clamp) in an adult mice model were as follows.

[3] = Noise trauma, hearing threshold shifts by auditory brainstem response; format: in vivo, guinea pigs
Description: D-TAT-IB1(s) was applied onto the round window membrane of the cochlea of 3 groups of guinea pigs (each group with 6 animals) in 2 microliters of a gel formulation of 2.6% buffered hyaluronic acid (Hylumed, Genzyme Corp.) at a concentration of 100 µM either 30 minutes before noise trauma (120 dB at 6 kHz during 30 minutes) or 30 minutes or 4 hours thereafter. Untreated ears served as control. Hearing threshold shifts were evaluated by auditory brainstem response measurements 20 minutes after noise trauma (temporary threshold shift, TTS) and 15 days following the trauma (permanent threshold shift, PTS). […] Thus, D-TAT-IB1 (s) is a very effective otoprotective compound in case of noise trauma.

CC(C)C[C@@H](NC(=O)[C@@H](Cc1ccccc1)NC(=O)[C@H]1CCCN1C(=O)[C@@H](CCC(N)=O)NC(=O)[C@H](NC(=O)[C@H]1CCCN1C(=O)[C@@H](CCCNC(=N)N)NC(=O)[C@@H](CO)NC(=O)[C@@H](CCC(N)=O)NC(=O)[C@H](N)CC(=O)O)C(C)C)C(=O)N[C@H](CC(N)=O)C(=O)N[C@H](CC(C)C)C(=O)N[C@@H](C(=O)N[C@@H](C(=O)N1CCC[C@@H]1C(=O)N[C@H](CCCNC(=N)N)C(=O)N[C@H](CCCCN)C(=O)N1CCC[C@@H]1C(=O)N[C@H](CCCNC(=N)N)C(=O)N1CCC[C@@H]1C(=O)N1CCC[C@@H]1C(=O)N[C@H](CCCNC(=N)N)C(=O)N[C@H](CCCNC(=N)N)C(=O)N[C@H](CCCNC(=N)N)C(=O)N[C@H](CCC(N)=O)C(=O)N[C@H](CCCNC(=N)N)C(=O)N[C@H](CCCNC(=N)N)C(=O)N[C@H](CCCCN)C(=O)N[C@H](CCCCN)C(=O)N[C@H](CCCNC(=N)N)C(=O)NCC(=O)O)[C@H](C)O)[C@H](C)O [D-TAT-IB1(s)] (H-[dD][dQ][dS][dR][dP][dV][dQ][dP][dF][dL][dN][dL][dT][dT][dP][dR][dK][dP][dR][dP][dP][dR][dR][dR][dQ][dR][dR][dK][dK][dR]G-OH)
stability inside the cells (βTC-3 cell cultures): extremely stable inside the cells
efficiency in decreasing JNK-mediated phosphorylation of c-Jun, fold less efficient than L-TAT-IB1(s) [1]: 10-20 fold
prevention of irradiation induced apoptosis (WiDr cells): able to prevent irradiation induced apoptosis
neuroprotection (infarct volumes) [2]: provides efficient neuroprotection
protection against permanent hearing loss (PTS, 15 days) ([3]; 100 μM in hyaluronic acid gel on round window membrane 30 minutes before noise trauma (120 dB at 6 kHz, 30 minutes)): protects substantially against permanent hearing loss from noise trauma if applied preventively before the noise exposure
permanent threshold shift (PTS, 15 days) versus untreated control ears ([3]; 100 μM in hyaluronic acid gel on round window membrane 30 minutes or 4 hours after noise trauma): significantly lower; also recorded: protected against permanent hearing loss even if applied after exposure to excessive noise
dependence of the protective effect on time of administration after noise trauma ([3]; 30 minutes versus 4 hours after trauma): in a time-dependent fashion if administered after trauma; also recorded: stronger the earlier
